In brackets after ≈: the same amount, converted by molar mass. Where a name gives a salt, the structure may show the parent alone.
Legend:
[1] = molecular target: CYP3A12 (Canis lupus familiaris, UniProt P24463); experiment: CYP3A12 activity inhibition in pooled dog liver microsomes; conditions: CYP3A12; no preincubation vs 20 min preincubation; 10 μM
Experimental: (§1) Inhibition potency (i.e. IC50) is determined by measuring the decrement in metabolism of P450-specific marker activities in pooled dog liver microsomes with increasing concentrations of CBD, CBDA, and hemp extracts. P450-specific markers include bupropion 6-hydroxylation (CYP2B11), dextromethorphan 0-demethylation (CYP2D15) and omeprazole sulfoxidation (CYP3A12). IC50 values are determined both with and without preincubation of liver microsomes with potential inhibitor to evaluate whether there is mechanism-based time-dependent inhibition.
(§2) The following parameters are assessed: (1) the rates of CBD and CBDA metabolism by dog liver microsomes and by 11 recombinant canine P450 enzymes; (2) the predicted percent contribution of each P450 to total CBD and CBDA metabolism in dog liver; and (3) IC50 values for inhibition of CYP2B11, CYP2D15 and CYP3A12 metabolism in dog liver, both with and without inhibitor preincubation.
(§3) FIGS. 13-15 show activity assays for CYP3A12 (FIGS. 13A and 13B), CYP2B11 (FIGS. 14A and 14B), and CYP2D15 (FIGS. 15A and 15B). Assays using either no preincubation (FIGS. 13A, 14A, and 15A) or 20 minutes of preincubation (FIGS. 13B, 14B, and 15B) were performed.

[2] = molecular target: T1, CYP2B11 (Canis lupus familiaris, UniProt P24460); experiment: CYP2B11 activity inhibition in pooled dog liver microsomes; conditions: CYP2B11; no preincubation vs 20 min preincubation; 10 μM
T1 sequence (P24460 1-494): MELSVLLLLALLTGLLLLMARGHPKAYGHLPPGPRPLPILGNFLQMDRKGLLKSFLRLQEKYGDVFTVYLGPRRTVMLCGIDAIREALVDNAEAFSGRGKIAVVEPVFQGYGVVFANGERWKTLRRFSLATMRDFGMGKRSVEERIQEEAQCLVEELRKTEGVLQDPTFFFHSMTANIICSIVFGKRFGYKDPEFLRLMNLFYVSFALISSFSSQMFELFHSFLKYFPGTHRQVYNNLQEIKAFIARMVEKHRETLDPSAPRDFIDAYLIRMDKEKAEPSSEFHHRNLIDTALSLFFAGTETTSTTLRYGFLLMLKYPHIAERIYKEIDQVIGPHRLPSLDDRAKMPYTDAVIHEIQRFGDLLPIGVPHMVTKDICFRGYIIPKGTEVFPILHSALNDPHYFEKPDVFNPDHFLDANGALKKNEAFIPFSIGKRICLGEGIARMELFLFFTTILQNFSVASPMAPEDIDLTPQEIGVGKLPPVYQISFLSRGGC
Experimental: as §1, §2, §3

[3] = molecular target: T2, CYP2D15 (Canis lupus familiaris, UniProt Q29473); experiment: CYP2D15 activity inhibition in pooled dog liver microsomes; assay type: in vitro ADME; conditions: no preincubation vs 20 min preincubation, 10 μM
T2 construct: P450-specific marker activities in pooled dog liver microsomes; from tissue; host or cells: pooled dog liver microsomes
T2 sequence (Q29473 1-500): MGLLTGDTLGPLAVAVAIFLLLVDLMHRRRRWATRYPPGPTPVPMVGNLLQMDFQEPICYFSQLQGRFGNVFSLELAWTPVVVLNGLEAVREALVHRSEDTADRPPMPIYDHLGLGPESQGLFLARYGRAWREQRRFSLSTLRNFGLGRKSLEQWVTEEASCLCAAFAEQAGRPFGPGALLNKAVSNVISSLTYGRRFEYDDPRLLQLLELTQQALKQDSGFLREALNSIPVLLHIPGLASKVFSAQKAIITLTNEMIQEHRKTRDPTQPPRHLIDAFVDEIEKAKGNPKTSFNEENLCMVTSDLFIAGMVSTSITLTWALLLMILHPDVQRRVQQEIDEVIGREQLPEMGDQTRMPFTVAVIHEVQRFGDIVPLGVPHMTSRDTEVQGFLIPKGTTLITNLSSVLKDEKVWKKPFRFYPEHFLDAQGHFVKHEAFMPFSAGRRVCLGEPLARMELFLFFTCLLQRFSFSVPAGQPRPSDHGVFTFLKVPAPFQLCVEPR

[4] = tested on: 17-71 B cell lymphoma cell line; experiment: 48 hours MTT proliferation assay, 17-71; assay type: cell-based, canine; conditions: pure compound
Experimental: (§4) 3-(4,5-Dimethylthaizol-2-yl)-2,5-diphenyltetrazolium bromide (MTT) assays are performed on all previously described cell lines; CMT12, HMPOS, D17, Abrams and 17-71. […] Cells are treated with vehicle (methanol or ethanol/DMSO mix) or various concentrations of the CBD, CBDA or CBD-rich hemp extract ranging from 0.42 to 20 μg/mL in serial dilution for 48 hours. MTT assays are performed after 48 hours of treatment by adding 20 μL of MTT dye ([…] filtered 5 mg/mL in phosphate-buffered saline [PBS]) to each well and incubating at 37° C. in 5% CO2 for 2 hours. The media is then aspirated, washed once with 200 μL of PBS and then solubilized in 200 μL of ethanol. Immediate analysis of the optical density of each well is performed using a spectrophotometric plate reader (Epoch; Biotek, Winooski, Vermont) at a wavelength of 570 nm as previously described (e.g., Vega-Avila E and Pugsley M K, An overview of colorimetric assay methods used to assess survival or proliferation of mammalian cells, Proc West Pharmacol Soc., 2011, 54, pp. 10-14 which is incorporated herein by reference in its entirety). The percent proliferating cells of control for each concentration is averaged and reported as a mean+/—SD from triplicate wells over three experiments.
(§5) For CBD, CBDA and hemp extract concentrations needed to obtain a 50% inhibition of cell proliferation (IC50) are then calculated across experiments by Probit analysis using XLFit5 software (IDBS, Guildford, United Kingdom) for reporting the results for each cell line.

[5] = tested on: CMT12 mammary gland carcinoma cell line; experiment: 48 hours MTT proliferation assay, CMT12; assay type: cell-based, canine; conditions: pure compound
Experimental: as §4, §5

[6] = tested on: Abrams osteosarcoma cell line; experiment: 48 hours MTT proliferation assay, Abrams; assay type: cell-based, canine; conditions: pure compound
Experimental: as §4, §5

[7] = tested on: D17 osteosarcoma cell line; experiment: 48 hours MTT proliferation assay, D17; assay type: cell-based, canine; conditions: pure compound
Experimental: as §4, §5

[8] = tested on: HMPOS osteosarcoma cell line; experiment: 48 hours MTT proliferation assay, HMPOS; assay type: cell-based, canine; conditions: pure compound
Experimental: as §4, §5

[9] = molecular target: T3, canine P-glycoprotein (Canis lupus familiaris, UniProt C0KKU9); experiment: P-glycoprotein competitive transport assay (rhodamine 123, MDCK PGP cells); assay type: in vitro ADME; conditions: rhodamine competition, CBD at 1000 ng/mL
T3 construct: host or cells: MDCK PGP cells (canine P-gp expressing cell line)
Experimental: In this second study, a competitive P-gp substrate assay incorporating a canine P-gp expressing cell line is used to assess each test compound's ability to compete with the P-gp substrate rhodamine 123. Each concentration is tested on 3 separate days with same-day duplicates. Positive controls and negative controls are included in each run.
Results for each concentration of test compound evaluated are reported as non-P-gp substrate, weak P-gp substrate, moderate P-gp substrate, or strong P-gp substrate. The concentrations for CBD and CBDA are as follows: 10 ng/mL, 100 ng/mL and 1,000 ng/mL.
A competitive P-gp substrate assay using a canine P-gp expressing cell line was used to assess CBDA and/or CBD as a substrate for canine P-glycoprotein.

[10] = Pharmacokinetics of three oral forms of CBD-rich hemp extract in dogs (serum LC-MS/MS); conditions: oral hemp extract forms 2 mg/kg CBD/CBDA
Description: The pharmacokinetics of cannabidiol (CBD), cannabidiolic acid (CBDA), Δ9-tetrahydrocannabinol (THC), and tetrahydrocannabinolic acid (THCA) on three oral forms of CBD-rich hemp extract that contained near equal amounts of CBD and CBDA, and minor amounts (<0.3% by weight) of THC and THCA in dogs were studied. The metabolized psychoactive component of THC, 11-hydroxy-Δ9-tetrahydrocannabinol (11-OH-THC) and CBD metabolites 7-hydroxycannabidiol (7-OH-CBD) and 7-nor-7-carboxycannabidiol (7-COOH-CBD) were also assessed to better understand the pharmacokinetic differences between three formulations regarding THC and CBD, and their metabolism. Six purpose-bred female beagles were utilized for study purposes, each having an initial 7-point, 24-h pharmacokinetic study performed using a dose of 2 mg/kg body weight of CBD/CBDA (˜1 mg/kg CBD and ˜1 mg/kg CBDA). Dogs were then dosed every 12 h for 2 weeks and had further serum analyses at weeks 1 and 2, 6 h after the morning dose to assess serum cannabinoids. Serum was analyzed for each cannabinoid or cannabinoid metabolite using liquid chromatography and tandem mass spectroscopy (LC-MS/MS).

[11] = tested on: CMT12 cell line; conditions: 48 hours MTT
Experimental: (§6) CMT12, 17-71 and D17 cells are plated at a density of 2500 cells per well in 96-well tissue culture-treated plates (Laboratory Product Sales, Rochester, New York). All cell lines are treated with identical concentrations of the pure CBD ([…]) and various concentrations of doxorubicin or vincristine. The concentration of doxorubicin varies between cell lines in order to achieve between 20% and 80% proliferation inhibition. The cell lines are treated with serial dilutions of doxorubicin as follows; CMT12 and D17 (0.067-2 μM) and 17-71 (0.0167-0.5 μM). Methanol is used as a vehicle control for all CBD treatments and sterile water for doxorubicin and vincristine at the highest doses used to represent the vehicle control treated wells. Cells are then incubated for 48 hours prior to performing MTT assays, as previously described. Wells treated with the vehicle control are considered to represent 100% proliferating cells in triplicate over three experiments. Percent viable cells for each specific combination are averaged and reported as mean percent proliferation+/— SD for further CI evaluation.
(§7) Raw data from MTT proliferation assays and trypan blue exclusion assays (individual optical density of each well) are normalized to the vehicle control treatment for each cell line, considered to represent 100% proliferating cells (single or combined treatment). The percent proliferating cells is determined by comparing optical density readings or live counts, respectively, of treatment wells at each concentration compared with vehicle control wells in each cell line.
(§8) The compound interactions of chemotherapy and CBD treatment in the CI studies are calculated by multiple drug effect analysis using Compusyn software (v.2; Compusyn Inc, Paramus, New Jersey) which employs the median equation principle according to the methodology described by Chou and Talalay to determine a CI value by the Formula I (Chou T C, Drug combination studies and their synergy quantification using the Chou-Talalay method, Cancer Res., 2010, 70(2), pp. 440-446, which is incorporated herein by reference in its entirety):
(§9) where (D)1 and (D)2 are the doses of both compounds in combination and (Dx)1 and (Dx)2 are the doses of each compound alone at x percent of inhibition. CI values≤0.9 indicate synergism, a CI value>0.9 and <1.1 indicates an additive effect, and CI values≥1.1 indicate antagonism.

[12] = tested on: D17 cell line; conditions: 48 hours MTT
Experimental: as §6, §7, §8, §9

T3 sequence (C0KKU9 1-1281): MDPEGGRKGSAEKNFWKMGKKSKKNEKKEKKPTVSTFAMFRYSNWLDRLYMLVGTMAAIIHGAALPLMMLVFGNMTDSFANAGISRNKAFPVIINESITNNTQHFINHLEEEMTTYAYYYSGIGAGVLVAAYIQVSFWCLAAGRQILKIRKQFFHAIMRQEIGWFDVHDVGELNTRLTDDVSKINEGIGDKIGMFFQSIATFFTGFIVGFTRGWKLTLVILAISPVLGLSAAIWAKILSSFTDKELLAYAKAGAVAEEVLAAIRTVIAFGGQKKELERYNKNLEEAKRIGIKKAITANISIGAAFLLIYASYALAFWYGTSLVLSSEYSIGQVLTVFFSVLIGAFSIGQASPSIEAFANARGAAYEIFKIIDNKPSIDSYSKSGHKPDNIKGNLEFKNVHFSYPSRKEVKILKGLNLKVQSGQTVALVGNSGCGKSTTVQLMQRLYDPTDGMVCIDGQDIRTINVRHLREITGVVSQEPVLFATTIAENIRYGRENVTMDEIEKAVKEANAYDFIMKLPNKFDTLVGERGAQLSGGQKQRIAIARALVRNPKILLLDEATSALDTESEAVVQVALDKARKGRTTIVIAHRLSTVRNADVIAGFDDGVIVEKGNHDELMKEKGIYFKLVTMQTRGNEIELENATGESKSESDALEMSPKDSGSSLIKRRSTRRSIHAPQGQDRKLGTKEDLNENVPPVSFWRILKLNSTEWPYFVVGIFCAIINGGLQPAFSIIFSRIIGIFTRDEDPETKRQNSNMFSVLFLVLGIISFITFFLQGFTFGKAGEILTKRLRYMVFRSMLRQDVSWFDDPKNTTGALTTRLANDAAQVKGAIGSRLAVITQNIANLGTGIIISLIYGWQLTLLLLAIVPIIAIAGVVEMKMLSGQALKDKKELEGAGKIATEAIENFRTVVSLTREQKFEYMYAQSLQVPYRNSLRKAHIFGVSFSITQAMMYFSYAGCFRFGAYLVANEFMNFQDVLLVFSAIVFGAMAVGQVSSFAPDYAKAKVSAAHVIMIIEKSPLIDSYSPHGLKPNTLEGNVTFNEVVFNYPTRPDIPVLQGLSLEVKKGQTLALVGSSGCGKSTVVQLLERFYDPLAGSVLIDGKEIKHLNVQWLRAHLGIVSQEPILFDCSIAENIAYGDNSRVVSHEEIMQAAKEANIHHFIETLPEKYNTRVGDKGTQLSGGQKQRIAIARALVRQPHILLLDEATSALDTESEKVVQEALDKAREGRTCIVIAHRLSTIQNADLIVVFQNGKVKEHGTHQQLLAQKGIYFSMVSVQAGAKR
Sequence of CYP3A12 (P24463 whole entry): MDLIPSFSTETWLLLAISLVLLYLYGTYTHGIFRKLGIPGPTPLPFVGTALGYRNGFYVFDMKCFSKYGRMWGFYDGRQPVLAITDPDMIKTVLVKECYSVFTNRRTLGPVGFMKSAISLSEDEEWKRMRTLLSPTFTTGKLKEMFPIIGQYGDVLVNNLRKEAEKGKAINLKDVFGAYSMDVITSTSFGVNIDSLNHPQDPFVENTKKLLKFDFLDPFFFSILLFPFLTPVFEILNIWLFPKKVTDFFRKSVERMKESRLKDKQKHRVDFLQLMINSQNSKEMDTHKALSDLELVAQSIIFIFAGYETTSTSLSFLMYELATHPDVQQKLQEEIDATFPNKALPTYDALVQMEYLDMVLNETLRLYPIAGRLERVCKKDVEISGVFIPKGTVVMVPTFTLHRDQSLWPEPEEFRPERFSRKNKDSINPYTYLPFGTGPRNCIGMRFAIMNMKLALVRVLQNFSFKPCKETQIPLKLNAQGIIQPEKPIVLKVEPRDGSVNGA

## C=C(C)[C@@H]1CCC(C)=C[C@H]1c1c(O)cc(CCCCC)c(C(=O)O)c1O [CBDA, cannabidiolic acid]
[1]
  time-dependent inhibition (TDI): did not show TDI
[2]
  time-dependent inhibition (TDI): did not show TDI
[3]
  time-dependent inhibition (TDI): did not show TDI
[4]; Canis lupus familiaris, B-cell, read-out: IC50 (Probit)
  IC50: 15.1 µg/mL (≈ 42.1 µM)
[4]; P<0.05
  concentrations that significantly diminished proliferation vs vehicle control: ≥ 5 µg/mL
[5]
  IC50 (Probit): could not be determined since 50% growth inhibition is not achieved in the assay
[5]; P<0.05
  concentrations that significantly diminished proliferation vs vehicle control: ≥ 10 µg/mL
[6]
  IC50 (Probit): could not be calculated because of lack of growth inhibition
[6]; P<0.05
  concentrations that significantly diminished proliferation vs vehicle control: 20 µg/mL
[7]
  IC50 (Probit): could not be calculated because of lack of growth inhibition
[7]; P<0.05
  concentrations that significantly diminished proliferation vs vehicle control: 20 µg/mL
[8]
  IC50 (Probit): could not be calculated because of lack of growth inhibition
[8]; P<0.05
  concentrations that significantly diminished proliferation vs vehicle control: 20 µg/mL

## N.N.O=C([O-])C1(C(=O)[O-])CCC1.[Pt+2] [Carboplatin]
[9]
  Mean MFI ratio compound:vehicle: 0.74
[9]; rhodamine alone 215
  MFI in MDCK PGP cells: 160

## CCCCCc1cc(O)c2c(c1)OC(C)(C)[C@@H]1CCC(C)=C[C@@H]21 [THC, delta-9-tetrahydrocannabinol]
[10]
  THC serum concentration: below the quantitation limit of the assay for nearly all samples

## COc1cccc2c1C(=O)c1c(O)c3c(c(O)c1C2=O)C[C@@](O)(C(=O)CO)C[C@@H]3O[C@H]1C[C@H](N)[C@H](O)[C@H](C)O1 [doxorubicin, doxorubicin hydrochloride]
[11]; doxorubicin alone
  inhibitory concentrations from IC20-IC80: 500 to 2000 nM
[12]; doxorubicin alone
  inhibitory concentrations from IC20-IC80: 500 to 2000 nM

## CC[C@]1(O)C[C@H]2CN(CCc3c([nH]c4ccccc34)[C@@](C(=O)OC)(c3cc4c(cc3OC)N(C=O)[C@H]3[C@@](O)(C(=O)OC)[C@H](OC(C)=O)[C@]5(CC)C=CCN6CC[C@]43[C@@H]65)C2)C1 [vincristine, vincristine sulfate]
[11]; vincristine alone
  IC20-IC80 values: 1.7 to 6.8 nM
[12]; vincristine alone
  IC20-IC80 values: 1.7 to 6.8 nM

Source: patent US20240075087A1, “COMPOSITIONS AND METHODS COMPRISING HEMP EXTRACT FOR THE TREATMENT OF ANIMALS IN NEED” (Portland Technology Holdings LLC, priority 2021, published 2024)
